Results published in patent publication US8912120B2, “Herbicidal compositions comprising 4-amino-3-chloro-5-fluoro-6-(4-chloro-2-fluoro-3-methoxyphenyl) pyridine-2-carboxylic acid or a derivative thereof and synthetic auxin herbicides” (Dow AgroSciences, LLC., priority 2012, dated 2014).
Read-outs that look alike come from different tables or passages of the source.

Legend:
[1] = test system: ECHCG; test: Example II: in-water applied herbicidal mixtures, transplanted paddy rice, ECHCG; assay type: in vivo, Echinochloa crus-galli (barnyardgrass); conditions: for Visual Weed Control (%) - 21 DAA ECHCG Obs / Visual Weed Control (%) - 22 DAA ECHCG Obs: in-water application
How it was run: (§1)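 Herbicides were injected by pipette, one after another, into the standing water of mud-filled pots. Rice had been moved in at the second or third leaf stage four days earlier. Every treatment carried identical acetone and crop oil concentrate levels, and untreated controls received only the solvent blank.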

[2] = test system: CYPIR; test: Example I: postemergence foliar-applied herbicidal mixtures, direct seeded rice, CYPIR; assay type: in vivo, Cyperus iria (rice flatsedge); conditions: 5.3 gae/ha
Procedure: (§2) The soil matrix was contained in plastic pots with a volume of 1 quart and a surface area of 83.6 square centimeters (cm^2). […] The plants were grown for 8-22 days in a greenhouse with an approximate 14 h photoperiod which was maintained at about 29° C. during the day and 26° C. during the night. Nutrients (Peters Excel® 15-5-15 5-Ca 2-Mg and iron chelate) were applied in the irrigation solution as needed and water was added on a regular basis. Supplemental lighting was provided with overhead metal halide 1000-Watt lamps as necessary. The plants were employed for testing when they reached the first through fourth true leaf stage.
(§3) Treatments consisted of the acid or esters of 4-amino-3-chloro-5-fluoro-6-(4-chloro-2-fluoro-3-methoxy-phenyl)pyridine-2-carboxylic acid (Compound A), each formulated as an SC (suspension concentrate), and various herbicidal components alone and in combination. Forms of compound A were applied on an acid equivalent basis.
(§4) For treatments comprised of formulated compounds, measured amounts of compounds were placed individually in 25 mL glass vials and diluted in a volume of 1.25% (v/v) Agri-Dex® crop oil concentrated to obtain 12× stock solutions. […] Application solutions were prepared by adding an appropriate amount of each stock solution (e.g., 1 mL) and diluted to the appropriate final concentrations with the addition of 10 mL of an aqueous mixture of 1.25% (v/v) crop oil concentrate so that the final spray solutions contained 1.25+/−0.05% (v/v) crop oil concentrate.
(§5) All stock solutions and applications solutions were visually inspected for compound compatibility prior to application. Spray solutions were applied to the plant material with an overhead Mandel track sprayer equipped with a 8002E nozzles calibrated to deliver 187 L/ha over an application area of 0.503 m^2 at a spray height of 18 to 20 inches (46 to 50 cm) above average plant canopy height. Control plants were sprayed in the same manner with the solvent blank.
(§6) The treated plants and control plants were placed in a greenhouse as described above and watered by sub-irrigation to prevent wash-off of the test compounds. After approximately 3 weeks, the condition of the test plants as compared with that of the untreated plants was determined visually and scored on a scale of 0 to 100 percent where 0 corresponds to no injury or growth inhibition and 100 corresponds to complete kill.
(§7) Colby's equation was used to determine the herbicidal effects expected from the mixtures (Colby, S. R. 1967. Calculation of the synergistic and antagonistic response of herbicide combinations. Weeds 15:20-22).
(§8) The following equation was used to calculate the expected activity of mixtures containing two active ingredients, A and B: Expected=A+B−(A×B/100)
(§9) A=observed efficacy of active ingredient A at the same concentration as used in the mixture.
(§10) B=observed efficacy of active ingredient B at the same concentration as used in the mixture.

[3] = test system: SCPMA; test: Example II: in-water applied herbicidal mixtures, transplanted paddy rice, SCPMA; assay type: in vivo; conditions: for Visual Weed Control (%) - 20 DAA SCPMA Obs: in-water application
How it was run: as §1

[4] = test system: CYPRO; test: Example II: in-water applied herbicidal mixtures, weed control in transplanted paddy rice (greenhouse), CYPRO; assay type: in vivo, Cyperus rotundus (purple nutsedge); conditions: for Visual Weed Control (%) - 20 DAA CYPRO Obs / Visual Weed Control (%) - 21 DAA CYPRO Obs / Visual Weed Control (%) - 22 DAA CYPRO Obs: in-water application
How it was run: as §1

[5] = test system: ECHCG; test: Example I: postemergence foliar-applied herbicidal mixtures, direct seeded rice, ECHCG
Procedure: as §2, §3, §4, §5, §6, §7, §8, §9, §10

[6] = test system: IPOHE; test: Example I: postemergence foliar-applied herbicidal mixtures, direct seeded rice, IPOHE; assay type: in vivo, Ipomoea hederacea (ivyleaf morningglory)
Procedure: as §2, §3, §4, §5, §6, §7, §8, §9, §10

[7] = test system: DIGSA; test: Example I: postemergence foliar-applied herbicidal mixtures, direct seeded rice, DIGSA; conditions: 21.2 gae/ha
Procedure: as §2, §3, §4, §5, §6, §7, §8, §9, §10

[8] = test system: LEFCH; test: Example I: postemergence foliar-applied herbicidal mixtures, direct seeded rice, LEFCH; assay type: in vivo, Leptochloa chinensis (Chinese sprangletop)
Procedure: as §2, §3, §4, §5, §6, §7, §8, §9, §10

[9] = test system: ECHOR; test: Example II: in-water applied herbicidal mixtures, transplanted paddy rice, ECHOR; assay type: in vivo, Echinochloa oryzoides (early watergrass)
How it was run: as §1

[10] = test system: LEFCH; test: Example II: in-water applied herbicidal mixtures, transplanted paddy rice, LEFCH; assay type: in vivo, Leptochloa chinensis (Chinese sprangletop)
How it was run: as §1

[11] = test system: ECHCO; test: Example I: postemergence foliar-applied herbicidal mixtures, direct seeded rice, ECHCO
[12] = 8.75 gae/ha, in-water application
[13] = 17.5 gae/ha, in-water application
[14] = 35 gae/ha, in-water application
[15] = 42.4 gae/ha, in-water application

COc1c(Cl)ccc(-c2nc(C(=O)O)c(Cl)c(N)c2F)c1F [Compound A Acid, 4-amino-3-chloro-6-(4-chloro-2-fluoro-3-methoxyphenyl)-5-fluoropyridine-2-carboxylic acid]
Visual Weed Control (%) - 21 DAA ECHCG Obs ([1]; 8.75 gae/ha): 0% | Visual Weed Control (%) - 22 DAA ECHCG Obs ([1]; 8.75 gae/ha): 0% | Visual Weed Control (%) - 21 DAA ECHCG Obs ([1]; 17.5 gae/ha): 0% | Visual Weed Control (%) - 22 DAA ECHCG Obs ([1]; 17.5 gae/ha): 20% | Visual Weed Control (%) Obs ([1]; 20 DAA, 10.6 gae/ha): 20% | Visual Weed Control (%) Obs ([1]; 20 DAA, 21.2 gae/ha): 20% | Visual Weed Control (%) Obs ([1]; 20 DAA, 42.4 gae/ha): 50% | Visual Weed Control (%) Obs ([1]; 21 DAA, 10.6 gae/ha): 0% | Visual Weed Control (%) Obs ([1]; 22 DAA, 8.75 gae/ha): 0% | Visual Weed Control (%) Obs ([1]; 22 DAA, 17.5 gae/ha): 20% | Visual Weed Control (%) Obs ([1]; 22 DAA, 21.2 gae/ha): 25% | Visual Weed Control (%) Obs ([1]; 22 DAA, 35 gae/ha): 25% | Visual Weed Control (%) Obs ([1]; 22 DAA, 42.4 gae/ha): 30% | Visual Weed Control (%) Obs ([1]; 25 DAA, 8.75 gae/ha): 0% | Visual Weed Control (%) Obs ([1]; 25 DAA, 17.5 gae/ha): 0% | Visual Weed Control (%) Obs ([1]; 25 DAA, 35 gae/ha): 70% | Visual Weed Control (%) - 21 DAA ECHCG Obs ([1]; 35 gae/ha): 20% | Visual Weed Control (%) - 22 DAA ECHCG Obs ([1]; 35 gae/ha): 25% | Visual Weed Control (%) - 20 DAA CYPIR Obs [2]: 65% | Visual Weed Control (%) - 20 DAA SCPMA Obs ([3]; 8.75 gae/ha): 0% | Visual Weed Control (%) - 20 DAA SCPMA Obs ([3]; 17.5 gae/ha): 0% | Visual Weed Control (%) Obs ([3]; 20 DAA, 42.4 gae/ha): 0% | Visual Weed Control (%) Obs ([3]; 20 DAA, 84.8 gae/ha): 0% | Visual Weed Control (%) Obs ([3]; 21 DAA, 42.4 gae/ha): 0% | Visual Weed Control (%) Obs ([3]; 22 DAA, 8.75 gae/ha): 0% | Visual Weed Control (%) Obs ([3]; 22 DAA, 16 gae/ha): 0% | Visual Weed Control (%) Obs ([3]; 22 DAA, 17.5 gae/ha): 0% | Visual Weed Control (%) Obs ([3]; 22 DAA, 32 gae/ha): 0% | Visual Weed Control (%) Obs ([3]; 22 DAA, 35 gae/ha): 0% | Visual Weed Control (%) Obs ([3]; 22 DAA, 64 gae/ha): 30% | Visual Weed Control (%) - 20 DAA SCPMA Obs ([3]; 35 gae/ha): 0% | Visual Weed Control (%) - 20 DAA CYPRO Obs ([4]; 8.75 gae/ha): 0% | Visual Weed Control (%) - 21 DAA CYPRO Obs ([4]; 8.75 gae/ha): 0% | Visual Weed Control (%) - 22 DAA CYPRO Obs ([4]; 8.75 gae/ha): 0% | Visual Weed Control (%) - 20 DAA CYPRO Obs ([4]; 17.5 gae/ha): 70% | Visual Weed Control (%) - 21 DAA CYPRO Obs ([4]; 17.5 gae/ha): 30% | Visual Weed Control (%) - 22 DAA CYPRO Obs ([4]; 17.5 gae/ha): 20% | Visual Weed Control (%) Obs ([4]; 20 DAA, 10.6 gae/ha): 10% | Visual Weed Control (%) Obs ([4]; 20 DAA, 21.2 gae/ha): 20% | Visual Weed Control (%) Obs ([4]; 22 DAA, 8.75 gae/ha): 0% | Visual Weed Control (%) Obs ([4]; 22 DAA, 10.6 gae/ha): 0% | Visual Weed Control (%) Obs ([4]; 22 DAA, 17.5 gae/ha): 20% | Visual Weed Control (%) Obs ([4]; 22 DAA, 21.2 gae/ha): 40% | Visual Weed Control (%) Obs ([4]; 22 DAA, 35 gae/ha): 50% | Visual Weed Control (%) - 21 DAA CYPRO Obs ([4]; 35 gae/ha): 85% | Visual Weed Control (%) - 22 DAA CYPRO Obs ([4]; 35 gae/ha): 50% | Visual Weed Control (%) - 21 DAA ECHCG Obs ([5]; 4.38 gae/ha): 15% | Visual Weed Control (%) - 21 DAA ECHCG Obs ([5]; 8.75 gae/ha): 50% | Visual Weed Control (%) - 19 DAA ECHCG Obs ([5]; 19.4 gae/ha): 80% | Visual Weed Control (%) - 20 DAA IPOHE Obs ([6]; 4.38 gae/ha): 10% | Visual Weed Control (%) - 20 DAA IPOHE Obs ([6]; 8.75 gae/ha): 15% | Visual Weed Control (%) - 20 DAA IPOHE Obs ([6]; 17.5 gae/ha): 30% | Visual Weed Control (%) - 21 DAA DIGSA Obs [7]: 10% | Visual Weed Control (%) - 20 DAA LEFCH Obs ([8]; 4.38 gae/ha): 0% | Visual Weed Control (%) - 20 DAA LEFCH Obs ([8]; 5.3 gae/ha): 10% | Visual Weed Control (%) - 20 DAA LEFCH Obs ([8]; 8.75 gae/ha): 0% | Visual Weed Control (%) - 20 DAA LEFCH Obs ([8]; 17.5 gae/ha): 10% | Visual Weed Control (%) - 19 DAA LEFCH Obs ([8]; 19.4 gae/ha): 5% | Visual Weed Control (%) - 20 DAA ECHOR Obs [9, 12]: 10% | Visual Weed Control (%) - 21 DAA ECHOR Obs [9, 12]: 10% | Visual Weed Control (%) - 22 DAA ECHOR Obs [9, 12]: 0% | Visual Weed Control (%) - 25 DAA ECHOR Obs [9, 12]: 0% | Visual Weed Control (%) - 20 DAA ECHOR Obs [9, 13]: 25% | Visual Weed Control (%) - 21 DAA ECHOR Obs [9, 13]: 15% | Visual Weed Control (%) - 22 DAA ECHOR Obs [9, 13]: 0% | Visual Weed Control (%) - 25 DAA ECHOR Obs [9, 13]: 0% | Visual Weed Control (%) - 20 DAA ECHOR Obs [9, 14]: 25% | Visual Weed Control (%) - 21 DAA ECHOR Obs [9, 14]: 20% | Visual Weed Control (%) - 22 DAA ECHOR Obs [9, 14]: 20% | Visual Weed Control (%) - 25 DAA ECHOR Obs [9, 14]: 40% | Visual Weed Control (%) - 19 DAA ECHOR Obs [9, 15]: 15% | pest or weed control at 42.4 g/ha ([9]; Echinochloa oryzoides, 456 h, 19 DAA, 42.4 gae/ha, read-out: Visual Weed Control (%) Obs): 15% | pest or weed control at 21.2 g/ha ([9]; Echinochloa oryzoides, 480 h, 20 DAA, 21.2 gae/ha, read-out: Visual Weed Control (%) Obs): 30% | pest or weed control at 84.8 g/ha ([9]; Echinochloa oryzoides, 480 h, 20 DAA, 84.8 gae/ha, read-out: Visual Weed Control (%) Obs): 33% | pest or weed control at 8.75 g/ha ([9]; Echinochloa oryzoides, 504 h, 21 DAA, 8.75 gae/ha, read-out: Visual Weed Control (%) Obs): 0% | pest or weed control at 17.5 g/ha ([9]; Echinochloa oryzoides, 504 h, 21 DAA, 17.5 gae/ha, read-out: Visual Weed Control (%) Obs): 0% | pest or weed control at 35 g/ha ([9]; Echinochloa oryzoides, 504 h, 21 DAA, 35 gae/ha, read-out: Visual Weed Control (%) Obs): 20% | pest or weed control at 42.4 g/ha ([9]; Echinochloa oryzoides, 504 h, 21 DAA, 42.4 gae/ha, read-out: Visual Weed Control (%) Obs): 15% | pest or weed control at 8.75 g/ha ([9]; Echinochloa oryzoides, 528 h, 22 DAA, 8.75 gae/ha, read-out: Visual Weed Control (%) Obs): 0% | pest or weed control at 17.5 g/ha ([9]; Echinochloa oryzoides, 528 h, 22 DAA, 17.5 gae/ha, read-out: Visual Weed Control (%) Obs): 0% | pest or weed control at 35 g/ha ([9]; Echinochloa oryzoides, 528 h, 22 DAA, 35 gae/ha, read-out: Visual Weed Control (%) Obs): 20% | pest or weed control at 8.75 g/ha ([9]; Echinochloa oryzoides, 600 h, 25 DAA, 8.75 gae/ha, read-out: Visual Weed Control (%) Obs): 0% | pest or weed control at 17.5 g/ha ([9]; Echinochloa oryzoides, 600 h, 25 DAA, 17.5 gae/ha, read-out: Visual Weed Control (%) Obs): 0% | pest or weed control at 35 g/ha ([9]; Echinochloa oryzoides, 600 h, 25 DAA, 35 gae/ha, read-out: Visual Weed Control (%) Obs): 40% | Visual Weed Control (%) - 21 DAA LEFCH Obs [10, 12]: 0% | Visual Weed Control (%) - 25 DAA LEFCH Obs [10, 12]: 50% | Visual Weed Control (%) - 21 DAA LEFCH Obs [10, 13]: 0% | Visual Weed Control (%) - 25 DAA LEFCH Obs [10, 13]: 50% | Visual Weed Control (%) Obs ([10]; 22 DAA, 10.6 gae/ha): 20% | Visual Weed Control (%) Obs ([10]; 22 DAA, 21.2 gae/ha): 40% | Visual Weed Control (%) Obs ([10]; 22 DAA, 42.4 gae/ha): 60% | Visual Weed Control (%) Obs ([10]; 25 DAA, 8.75 gae/ha): 50% | Visual Weed Control (%) Obs ([10]; 25 DAA, 17.5 gae/ha): 50% | Visual Weed Control (%) Obs ([10]; 25 DAA, 35 gae/ha): 85% | Visual Weed Control (%) - 21 DAA LEFCH Obs [10, 14]: 30% | Visual Weed Control (%) - 25 DAA LEFCH Obs [10, 14]: 85% | Visual Weed Control (%) - 19 DAA LEFCH Obs [10, 15]: 10% | Visual Weed Control (%) - 21 DAA ECHCO Obs ([11]; 4.38 gae/ha): 70% | Visual Weed Control (%) - 21 DAA ECHCO Obs ([11]; 8.75 gae/ha): 75%
